This is an account of results in publication PMC3234597, “Two Panels of Steroid Receptor Luciferase Reporter Cell Lines for Compound Profiling” (Combinatorial Chemistry & High Throughput Screening, 2011).

The structures appear in SMILES notation.

What all share (format): cell-based
The target in assay [1] is T1, human AR (full-length) (Homo sapiens, UniProt P10275).
T1 construct: expression vectors encoding full-length steroid receptors: pcDNA3-hAR and pcDNA3-hGR; host or cells: U2OS
T1 sequence (P10275 1-920): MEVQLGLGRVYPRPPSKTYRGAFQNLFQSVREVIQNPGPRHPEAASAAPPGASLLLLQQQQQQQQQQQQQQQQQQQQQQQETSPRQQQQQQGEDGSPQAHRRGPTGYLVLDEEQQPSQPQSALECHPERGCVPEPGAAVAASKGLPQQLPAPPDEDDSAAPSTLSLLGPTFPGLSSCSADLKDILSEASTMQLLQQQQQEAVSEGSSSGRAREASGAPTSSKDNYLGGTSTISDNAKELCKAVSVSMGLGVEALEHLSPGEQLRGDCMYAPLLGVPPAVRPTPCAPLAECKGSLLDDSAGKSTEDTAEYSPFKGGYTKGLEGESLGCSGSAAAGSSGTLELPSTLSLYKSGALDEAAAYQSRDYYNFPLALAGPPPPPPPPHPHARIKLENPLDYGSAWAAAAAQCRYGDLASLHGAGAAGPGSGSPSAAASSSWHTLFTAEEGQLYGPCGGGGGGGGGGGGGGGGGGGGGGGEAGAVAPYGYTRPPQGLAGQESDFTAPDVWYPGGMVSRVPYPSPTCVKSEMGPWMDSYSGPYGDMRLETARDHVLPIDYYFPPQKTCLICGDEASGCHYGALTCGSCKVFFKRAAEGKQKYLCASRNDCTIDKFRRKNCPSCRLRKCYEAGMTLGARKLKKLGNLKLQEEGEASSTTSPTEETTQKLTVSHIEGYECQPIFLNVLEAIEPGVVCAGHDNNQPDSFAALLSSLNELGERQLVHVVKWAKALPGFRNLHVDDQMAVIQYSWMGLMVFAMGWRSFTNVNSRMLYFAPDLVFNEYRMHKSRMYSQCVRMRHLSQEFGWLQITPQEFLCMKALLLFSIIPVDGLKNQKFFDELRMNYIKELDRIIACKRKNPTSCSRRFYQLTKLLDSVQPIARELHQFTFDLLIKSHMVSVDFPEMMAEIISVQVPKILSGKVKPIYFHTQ
The assay can be described thus: U2OS-AR/MMTV luciferase reporter cell line (full-length receptor). For orientation: Reporter assays use an easily measured gene product as a stand-in for the process of interest.

A further assay deals with T2, MR-LBD fused to Gal4-DBD (Homo sapiens, UniProt P08235).
T2 construct: MR-LBD was cloned by RT-PCR from total RNA isolated from HEK293 cells; expressed in transfected cells; host or cells: U2OS
T2 sequence (P08235 726-964 limits assumed): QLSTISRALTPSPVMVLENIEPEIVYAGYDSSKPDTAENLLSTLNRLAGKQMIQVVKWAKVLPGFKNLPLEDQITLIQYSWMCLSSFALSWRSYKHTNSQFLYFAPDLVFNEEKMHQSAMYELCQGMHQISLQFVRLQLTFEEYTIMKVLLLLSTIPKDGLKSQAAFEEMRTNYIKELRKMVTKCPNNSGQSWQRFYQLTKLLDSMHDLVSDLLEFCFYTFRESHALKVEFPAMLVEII
The assay can be described thus: U2OS-MR-LBD/9xGal4UAS luciferase reporter cell line. The note with it: read-out: Log EC50 (converted).

The next assay has as its target T3, human ERβ (full-length) (Homo sapiens, UniProt Q92731).
T3 construct: expression vectors encoding full-length steroid receptors: pcDNA3-hERα and pcDNA3-ERβ; expressed in transfected cells; host or cells: U2OS
The assay can be described thus: U2OS-ERβ/3xERE luciferase reporter cell line (full-length receptor). To be noted: read-out: Log EC50 (converted).

In the next assay the target is T4, human MR (full-length) (Homo sapiens, UniProt P08235).
T4 construct: expression vectors encoding full-length steroid receptors: pcDNA3-hAR, pcDNA3-hGR and pcDNA3-hMR; expressed in transfected cells; host or cells: U2OS
T4 sequence (P08235 1-984): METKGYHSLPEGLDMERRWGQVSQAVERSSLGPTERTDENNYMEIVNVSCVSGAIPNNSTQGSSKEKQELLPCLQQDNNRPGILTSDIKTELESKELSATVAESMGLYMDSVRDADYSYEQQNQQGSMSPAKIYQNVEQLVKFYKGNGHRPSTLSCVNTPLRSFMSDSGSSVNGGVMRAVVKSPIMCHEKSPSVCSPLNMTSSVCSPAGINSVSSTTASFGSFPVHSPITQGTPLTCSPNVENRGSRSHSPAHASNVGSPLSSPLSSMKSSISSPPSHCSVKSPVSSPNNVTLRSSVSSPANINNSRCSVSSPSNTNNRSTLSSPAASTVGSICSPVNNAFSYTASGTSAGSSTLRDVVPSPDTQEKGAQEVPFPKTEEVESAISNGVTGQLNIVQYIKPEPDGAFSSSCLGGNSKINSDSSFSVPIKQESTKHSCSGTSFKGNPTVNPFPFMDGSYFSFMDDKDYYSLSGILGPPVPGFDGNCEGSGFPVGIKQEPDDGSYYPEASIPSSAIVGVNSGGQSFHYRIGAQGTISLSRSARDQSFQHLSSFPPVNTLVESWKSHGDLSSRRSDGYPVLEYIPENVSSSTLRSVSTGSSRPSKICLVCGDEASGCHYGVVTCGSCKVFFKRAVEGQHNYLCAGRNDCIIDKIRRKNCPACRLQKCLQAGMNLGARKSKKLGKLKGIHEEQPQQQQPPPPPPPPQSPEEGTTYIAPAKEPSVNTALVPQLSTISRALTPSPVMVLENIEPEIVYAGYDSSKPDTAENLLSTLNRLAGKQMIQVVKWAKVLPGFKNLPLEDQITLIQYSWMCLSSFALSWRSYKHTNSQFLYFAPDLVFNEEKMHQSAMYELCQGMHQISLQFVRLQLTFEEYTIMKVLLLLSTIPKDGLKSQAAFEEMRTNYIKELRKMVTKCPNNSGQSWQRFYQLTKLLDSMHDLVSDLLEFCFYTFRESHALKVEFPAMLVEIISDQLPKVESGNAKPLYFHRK
Nature of the assay: U2OS-MR/MMTV luciferase reporter cell line (full-length receptor). To be noted: read-out: Log EC50 (converted).

The target of assay [2] is T1, human AR (full-length). The assay can be described thus: U2OS-AR/3xGRE luciferase reporter cell line (full-length receptor).
The next assay has as its target T5, PR-LBD fused to Gal4-DBD (Homo sapiens, UniProt P06401).
T5 construct: PR-LBD region was PCR amplified using the following primer combination; host or cells: U2OS
T5 sequence (P06401 679-913 limits assumed): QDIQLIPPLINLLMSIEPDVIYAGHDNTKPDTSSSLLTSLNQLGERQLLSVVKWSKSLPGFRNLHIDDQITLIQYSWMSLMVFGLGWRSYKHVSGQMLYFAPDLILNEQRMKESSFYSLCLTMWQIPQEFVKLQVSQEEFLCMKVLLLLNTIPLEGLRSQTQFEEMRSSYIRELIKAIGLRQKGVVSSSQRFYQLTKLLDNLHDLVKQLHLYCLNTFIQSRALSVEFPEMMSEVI
The assay can be described thus: U2OS-PR-LBD/9xGal4UAS luciferase reporter cell line.

Assay [3] has as its target T6, AR-LBD fused to Gal4-DBD (co-expressed with full-length AR) (Homo sapiens, UniProt P10275).
T6 construct: the following primers were used for the amplification of the LBD region; expressed in transfected cells; host or cells: U2OS
T6 sequence (P10275 669-900 limits assumed): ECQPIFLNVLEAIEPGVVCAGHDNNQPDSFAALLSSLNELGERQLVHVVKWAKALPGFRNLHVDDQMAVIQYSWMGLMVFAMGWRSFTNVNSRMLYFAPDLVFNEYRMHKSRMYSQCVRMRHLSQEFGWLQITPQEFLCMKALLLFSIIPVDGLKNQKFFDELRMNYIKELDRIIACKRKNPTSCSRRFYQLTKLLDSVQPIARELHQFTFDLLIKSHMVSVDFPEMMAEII
The assay can be described thus: U2OS-AR-LBD/9xGal4UAS luciferase reporter cell line.

Assay [4] concerns the target T7, ERβ-LBD fused to Gal4-DBD (Homo sapiens, UniProt Q92731).
T7 construct: region comprising ERβ-LBD and a piece of the hinge region; expressed in transfected cells; host or cells: U2OS
The assay can be described thus: U2OS-ERβ-LBD/9xGal4UAS luciferase reporter cell line. The note with it: read-out: Log EC50 (converted).

The term EC50 denotes the midpoint of the concentration-response curve. The term IC50 denotes the concentration needed to halve the response being measured.

T3 sequence (Q92731 whole entry): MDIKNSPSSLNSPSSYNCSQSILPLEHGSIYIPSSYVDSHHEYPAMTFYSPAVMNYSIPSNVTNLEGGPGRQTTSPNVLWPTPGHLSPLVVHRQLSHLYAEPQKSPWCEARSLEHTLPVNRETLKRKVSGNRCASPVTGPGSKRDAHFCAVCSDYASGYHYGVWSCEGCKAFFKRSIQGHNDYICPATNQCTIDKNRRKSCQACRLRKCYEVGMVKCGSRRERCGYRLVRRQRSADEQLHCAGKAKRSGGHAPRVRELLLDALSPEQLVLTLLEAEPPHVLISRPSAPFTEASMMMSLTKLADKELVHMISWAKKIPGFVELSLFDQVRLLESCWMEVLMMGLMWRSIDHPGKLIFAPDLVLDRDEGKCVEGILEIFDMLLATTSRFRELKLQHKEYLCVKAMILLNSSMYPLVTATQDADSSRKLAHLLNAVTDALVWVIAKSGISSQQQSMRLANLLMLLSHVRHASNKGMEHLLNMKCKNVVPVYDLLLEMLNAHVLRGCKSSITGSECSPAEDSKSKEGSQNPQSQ
T7 sequence (Q92731 264-498 limits assumed): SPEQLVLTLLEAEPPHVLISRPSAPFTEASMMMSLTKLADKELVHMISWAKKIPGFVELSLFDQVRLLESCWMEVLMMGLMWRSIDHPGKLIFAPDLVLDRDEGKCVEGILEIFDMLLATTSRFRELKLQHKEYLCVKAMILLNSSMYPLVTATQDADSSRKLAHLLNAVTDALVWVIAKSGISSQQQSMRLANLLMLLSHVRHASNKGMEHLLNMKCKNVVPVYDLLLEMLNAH

With `C[C@]12CCC(=O)C=C1CC[C@@H]1[C@@H]2[C@@H](O)C[C@@]2(C)[C@H]1CC[C@]2(O)C(=O)CO` [Cortisol, cortisol], the EC50 on human AR (full-length) [1] is > 10 µM; at MR-LBD fused to Gal4-DBD, 0.0112 µM; at human ERβ (full-length), > 10 µM; at human MR (full-length), 0.00631 µM; at human AR (full-length) [2] it was > 10 µM; on PR-LBD fused to Gal4-DBD (read-out: Log EC50 (converted)), 6.17 µM. Moreover, the EC50 in assay [3] and in assay [4] was > 10 µM in each case. Also, the IC50 against human AR (full-length) [1] is > 10 µM; on PR-LBD fused to Gal4-DBD (antagonist mode, PR-LBD/9xGal4UAS, log10 of molar IC50, mean ± SEM, read-out: Log IC50 (converted)), > 10 µM; in assay [3], > 10 µM.
